Reference: patent US20220356163A1, “SMALL MOLECULE INHIBITORS OF Id PROTEINS” (MEMORIAL SLOAN KETTERING CANCER CENTER, priority 2019, published 2022)

Assays:
[1] = molecular target: T1, Id1 (Mus musculus, UniProt P20067); experiment: Electrophoretic mobility shift assay (EMSA): ability of Id1 to antagonize E47 binding to DNA; format: biochemical; conditions: comparison between compounds
T1 construct: in the presence or absence of purified full-length Id1; made in house; host or cells: bacteria (Id1: Rosetta 2 (DE3))
T1 sequence (P20067 1-148 isoform P20067-2): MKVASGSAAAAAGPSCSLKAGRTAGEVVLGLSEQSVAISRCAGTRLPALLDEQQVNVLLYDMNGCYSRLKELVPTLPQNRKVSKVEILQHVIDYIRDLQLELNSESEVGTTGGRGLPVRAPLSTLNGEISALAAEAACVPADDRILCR
Description: (§1) Electrophoretic mobility shift assays. To test the activity of compounds identified in the in silico screen, full-length E47 was purified from bacteria and mixed with a P^32 labeled E-box sequence derived from the muscle creatine kinase (MCK) enhancer, BSA, DTT, poly dI-dC, salmon sperm, and HeLa nuclear extract, in the presence or absence of purified full-length Id1. Increasing concentrations of the various test compounds dissolved in DMSO or DMSO alone were added to the reaction mixes for 30 minutes, resolved on a 5% non-denaturing polyacrylamide gel, and autoradiographed. Electrophoretic mobility shift assays (EMSAs) were carried out on whole cell lysates from AGX51-treated cells and the EMSA was performed as described previously (Tournay and Benezra, Mol Cell Biol, 16: 2418-30 (1996)).
Pesce and Benezra, Mol. Cell. Biol., 13, 7874-7880 (1993). An in silico screen of 2,234,000 compounds for crevice binding was performed, yielding 3,000 hits that were pared for drug-like properties. 364 candidates emerged and were tested for their capacity to inhibit the ability of Id1 to antagonize E47 binding to DNA by EMSAs as previously described (Benezra, 1994). […] This anti-Id1 activity was most likely due to the perturbation of the Id1-E47 interaction but other explanations, such as the binding of an Id1-E47 complex to DNA in the presence of compound, are possible. […]

[2] = system: E protein binding; experiment: EMSA on whole cell lysates from HCT116 cells; format: cell-based; conditions: 24 hours treatment
Description: as §1
Without being bound by theory, it was hypothesized that loss of Id proteins in response to AGX51 should result in an increase in E protein binding activity assuming little interference of the compound with the E proteins themselves. […] To determine if loss of Id activity precedes Id protein loss, EMSAs were carried out using cell lysates from HCT116 cells treated with AGX51 for one hour.

[3] = molecular target: E47 (Homo sapiens, UniProt P15923); experiment: Circular dichroism (CD) of E47; format: binding; conditions: 0, 10, 20 and 50 μM
E47, sequence (P15923 1-651 isoform P15923-2): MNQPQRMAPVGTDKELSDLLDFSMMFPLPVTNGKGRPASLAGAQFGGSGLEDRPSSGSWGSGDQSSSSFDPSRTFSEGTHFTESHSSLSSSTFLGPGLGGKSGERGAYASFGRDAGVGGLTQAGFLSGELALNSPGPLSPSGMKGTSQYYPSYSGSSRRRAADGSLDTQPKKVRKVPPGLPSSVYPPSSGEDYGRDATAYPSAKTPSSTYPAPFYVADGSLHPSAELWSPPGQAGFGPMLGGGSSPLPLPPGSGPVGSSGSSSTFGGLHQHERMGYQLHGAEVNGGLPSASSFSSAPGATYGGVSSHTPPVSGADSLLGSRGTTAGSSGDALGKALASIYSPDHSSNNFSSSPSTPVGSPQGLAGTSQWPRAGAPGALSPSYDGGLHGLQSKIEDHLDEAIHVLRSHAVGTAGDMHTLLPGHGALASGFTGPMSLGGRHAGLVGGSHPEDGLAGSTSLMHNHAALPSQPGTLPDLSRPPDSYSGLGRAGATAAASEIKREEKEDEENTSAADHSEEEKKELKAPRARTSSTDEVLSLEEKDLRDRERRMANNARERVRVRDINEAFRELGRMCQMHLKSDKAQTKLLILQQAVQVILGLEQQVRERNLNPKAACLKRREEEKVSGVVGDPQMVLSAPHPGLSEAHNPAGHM
Description: Circular dichroism. Far UV Circular dichroism (CD) measurements were done on a Jasco J-1500 spectropolarimeter at room temperature using a 0.1 cm cell and a 0.1 mg/mL protein solution in the absence of presence of AGX51, AGX51E1, AGX51E2 or AGX-A. Due to the presence of DMSO in the samples, the lowest wavelength to be scanned is limited.

[4] = molecular target: T2, Id3 (Mus musculus, UniProt P41133); experiment: Circular dichroism (CD) of Id3; format: binding; conditions: 0 or 100 μM
T2 construct: GST (cleaved yes); made in house; host or cells: E. coli Rosetta 2(DE3)
T2 sequence (P41133 whole entry): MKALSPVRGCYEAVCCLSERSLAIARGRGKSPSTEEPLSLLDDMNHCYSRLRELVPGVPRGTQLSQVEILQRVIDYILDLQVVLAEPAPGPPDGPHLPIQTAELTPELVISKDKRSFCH
Description: Id protein purification. pGEV-PSP-mId1 and mId3 expression constructs were transformed into Rosetta 2(DE3) Competent Cells (Sigma Millipore) for protein expression. To produce recombinant GST-tagged protein, a 50 mL LB/Ampicillin (100 μg/m)+Chloramphenicol (25 μg/mL) culture was grown overnight at 37° C. Early the next day, the overnight culture was diluted 1:100 into 6 L LB/Ampicillin+Chloramphenicol and cultured at 37° C. for about four hours until OD600=0.7. Cultures were induced with 1 mM IPTG and incubated at 16° C. for 16-18 hours. Cells were harvested by centrifugation at 4000 rpm for 15 minutes at 4° C. and the pellet was resuspended in lysis buffer (50 mM Tris pH 8.0; 400 mM NaCl; 0.5 mM TCEP, Protease Inhibitor Cocktail) (25 mL/L of culture). To lyse the cells, Triton X-100 and lysozyme were added to 0.1% and 10 μg/mL respectively, incubated for 30 minutes on ice and sonicated. Lysates were spun at 17,000 rpm for 30 minutes at 4° C. and supernatants were filtered through a […] filter before incubation with glutathione sepharose for two hours at 4° C. The sepharose with bound protein was run through a polypropylene column and washed twice with 50 mL wash buffer (50 mM Tris pH 8.0; 400 mM NaCl) before protein was eluted with 10 mL 50 mM glutathione elution buffer, pH 8.0. […]

What does the source list for `CCC(=O)N(CCC(c1ccc2c(c1)OCO2)c1ccccc1OC)Cc1ccccc1` (racemic) [AGX51, N-(3-(benzo[d][1,3]dioxol-5-yl)-3-(2-methoxyphenyl)propyl)-N-benzylpropionamide]?
relative potency in EMSA [1]: more potent than B; E protein binding in cell lysates [2]: small increase in E protein binding; interaction with E47 (CD) [3]: no evidence of an interaction; effect on Id3 secondary structure (CD) [4]: small but reproducible effect
